The values that follow come from patent US20090291088A1, “THERAPEUTIC COMBINATIONS OF ANTI-IGF-1R ANTIBODIES AND OTHER COMPOUNDS” (Biogen Idec MA Inc., priority 2008, published 2009).

SMILES strings stand for the structures.

Experiment [1] deals with MiaPaCa2 pancreatic carcinoma cells. Nature of the experiment: MiaPaCa2 pancreatic carcinoma xenograft. The note with it: gemcitabine alone, 20 mg/kg, Q4D×3. The class given is in vivo, mouse. The text has this:
Female SCID mice were innoculated in the right flank with 2×10^6 MiaPaCa2 pancreatic carcinoma cells in 50% Matrigel (BD Biosciences)/PBS.

The subject of experiment [2] is NSCLC, pancreatic and colon cancer cell lines. In words: Cell viability, M13-C06 and PI-103 alone or combined. The class given is cell-based. Conditions: PI-103, colon cancer cell lines. As for the experimental part: Cells were plated at 5000 cells/well in 96-well tissue culture plates in cell culture medium containing 10% fetal bovine serum, then treated with M13-C06 or PI-103 (American Custom Chemicals Corp. cat# 371935-74-9) as single agents or in combination at 1:3 serial dilutions with a starting concentration of 200 nM and 10 microM for M13-C06 and PI-103 respectively. The cell viability was determined three or five days later by measuring ATP levels with CELL TITER GLO™ reagent from Promega.

In the case of `Nc1ccn([C@@H]2O[C@H](CO)[C@@H](O)C2(F)F)c(=O)n1` [gemcitabine], in experiment [1], the tumor growth entry was “inhibited tumor growth”. `Oc1cccc(-c2nc(N3CCOCC3)c3oc4ncccc4c3n2)c1` [PI-103, 3-[4-(4-morpholinyl)pyrido[3′,2′:4,5]furo[3,2-d]pyrimidin-2-yl]-phenol, reference compound]: the cell growth entry in experiment [2] is “None of the colon cancer cell lines appeared to be sensitive to PI-103 inhibition”.
